From patent US20080095868A1, “Use of fermented wheat-germ in the feeding and veterinary practice” (priority 2002, published 2008) come the findings set out here.

This assay concerns M. gallisepticum No 1226. As to the kind of experiment: effect against Mycoplasma gallisepticum infection in chickens (Example 6). It is filed as in vivo, Mycoplasma gallisepticum; Arbor Acress chickens. Here is the method: The investigations were performed with Arbor Acress chickens of meat type free of M. synoviae infection. The freedom from Mycoplasma synoviae of the animals was verified with systematic serological screening examination in an agglutination test by the help of M. gallisepticum and M. synoviae antigens (Intervet International B.V.M.; Boxmeer, The Netherlands). Furthermore, the animals were tested in an ELISA-test based on monoclonal antibodies and with the use of MYGA test-kit (Diagnosztikum Kft; Budapest, Hungary) and MYSA kit (Svanova, Uppsala, Sweden) [Czifra, Gy. et al.: Avian Dis. 37, 680-688 (1993)]. The serological examinations gave negative results. Furthermore, from the same hatching from which the experimental animals derived, isolation of Mycoplasma was tried from the nasal cavity, trachea and air pocket of 20 1 day old chicks using medium B [Erno H., and Stipkovits, L.: Acta Vet. Scand. 14, 436-449 (1973)] and Frey's media [Frey, M. C. et al.: Am. J. Vet. Res. 29, 2164-2171 (1968)]. This cultivation closed with a negative result, too.
For the infection of the experimental animals M. gallisepticum N^o 1226 was employed which had been previously amplified in medium B for 24 hours. The germ content was 9.5×10^8 pfu/ml (pfu=plaque forming unit).
The experimental groups were treated and infected as follows:
Group 1. was located in a 200 litre box which can be fastened down hermetically, into which 10 ml sterile medium B was sprayed, then the animals were kept in this box for 20 minutes.
Group 3. was infected in identical manner as Group 2., then after location in a third room the animals were fed with a chick breeding nutriment containing VET-HBM in 3 g/kg concentration in the course of the experiment.
Group 4. was infected in identical manner as Group 2., then after location in a fourth room the animals were fed with a nutriment containing 200 mg/kg tiamutin (Biochemie GmbH, Kundl, Austria) in the course of the experiment.
To the judgment of the effectiveness of the treatment the following parameters were investigated: clinical symptoms, changes in body weight, feed conversion ratio; in addition to them pathological, histological and serological examinations as well as Mycoplasma re-isolation were performed. In the course of their evaluation the following result were obtained.
At the end of the experiment all the animals were examined by pathological dissection to air-pocket- and peritoneum inflammation characteristic of the M. gallisepticum infection.
The blood plasma of all the chickens was investigated on slide in a M. gallisepticum agglutination test. The severity of the reaction was scored, and the number of respondent animals and the sum of the scores were compared in a Chie square test. The Group 1. remained negative till the end of the experiment. […] (75 scores).
The re-isolation of the infectious Mycoplasma strain was performed as follows. Following of the infection after 1 hour 5-5 animals were killed. 1-1 cm long pieces of trachea were placed into 2 ml liquid medium B, and after 3 minutes of shaking germ counting were performed in the medium. At the end of the experiment re-isolation of the strain used for infection was attempted from the respiratory organs (trachea, lung, air-pocket) and other organs (brain, liver, spleen, kidney, heart) of all the chickens in that manner that samples were carried from every abovementioned organ to solid medium B by the help of a tampon. The agar slants were cultivated for 10 days then they were evaluated. A portion of the isolates was identified with an epifluorescent method using a specific immune serum.

With `C=C[C@]1(C)C[C@@H](OC(=O)CSCCN(CC)CC)[C@]2(C)[C@H](C)CC[C@]3(CCC(=O)[C@H]32)[C@@H](C)[C@@H]1O` [tiamutin], for the setting “30 animals per group, non-treated Group 2: 25, VET-HBM 3 g/kg, tiamutin 200 mg/kg”, the “number of animals exhibiting serological response, M. gallisepticum agglutination test” value turned out to be 8. Also, where the note is “end of the experiment, Group 2: 64 instances, VET-HBM 3 g/kg, tiamutin 200 mg/kg”, the “Mycoplasma re-isolation, number of occasions” value is on record as 3. For the same compound, the clinical symptoms entry (infected chickens, Group 3 VET-HBM 3 g/kg, Group 4 tiamutin 200 mg/kg in nutriment) is given as “no any clinical symptoms”. Besides, the “gain in body weight” value (infected chickens, VET-HBM 3 g/kg, tiamutin 200 mg/kg in nutriment) was “of same degree as in the control group”. The feed conversion ratio entry (infected chickens, VET-HBM 3 g/kg, tiamutin 200 mg/kg, versus control group) was “remained at the same level”. For the same compound, where the note is “non-treated Group 2: 75 scores, VET-HBM 3 g/kg, tiamutin 200 mg/kg”, the “sum of the scores of the serological reaction” value stood at 11. The “pathological alterations (air-pocket- and peritoneum inflammation)” value (versus infected non-treated Group 2, VET-HBM 3 g/kg, tiamutin 200 mg/kg) was “developed significantly more scarcely”. Also, the “histological parameters (lymphohystiocytic bronchitis, lobular interstitial pneumoniae)” value (versus non-infected Group 1, VET-HBM 3 g/kg, tiamutin 200 mg/kg) was “remained on the same level as in the Group 1”.
